Holding throughout (type): in vivo
The test system of data set [1] is bean aphid (Aphis fabae Scop.). As to the kind of experiment: Bean aphid foliage spray test. More on the design: key: A: Excellent control; B: Partial control; C: No control. Particulars: 500 ppm, 24 hour. As for the experimental part:
(§1) Suspensions of the test compounds were prepared by dissolving one gram of compound in 50 milliliters of acetone in which had been dissolved 0.1 gram (10 percent of the weight of compound) of an alkylphenoxy polyethoxyethanol surfactant, as an emulsifying or dispersing agent. The resulting solution was mixed into 150 milliliters of water to give roughly 200 milliliters of a suspension containing the compound in finely divided form. The thus-prepared stock suspension contained 0.5 percent by weight of test compound. The test concentrations in parts per million by weight employed in the tests described hereinbelow were obtained by appropriate dilutions of the stock suspension with water. The test procedures were as follows:
Adults and nymphal stages of the bean aphid (Aphis fabae Scop.) reared on potted dwarf nasturtium plants at 65°-70° F. and 50-70 percent relative humidity, constituted the test insects. For testing purposes, the number of aphids per pot was standardized to 100-150 by trimming plants containing excess aphids.
The test compounds were formulated by diluting the stock suspension with water to give a suspension containing 500 parts of test compound per million parts of final formulation.
The potted plants (one pot per compound tested) infested with 100-150 aphids, were placed on a revolving turntable and sprayed with 100-110 milliliters of test compound formulation by use of a DeVilbiss spray gun set at 40 psig. air pressure. This application, which lasted 25 seconds, was sufficient to wet the plants to run-off. As a control, 100-110 milliliters of a water-acetone-emulsifier solution containing no test compound were also sprayed on infested plants. After spraying, the pots were placed on their sides on a sheet of white standard mimeograph paper which had been previously ruled to facilitate counting. Temperature and humidity in the test room during the 24 hour holding period were 65°-70° F. and 50-70 percent, respectively. Aphids which fell onto the paper and were unable to remain standing after being uprighted were considered dead. Aphids remaining on the plants were observed closely for movement and those which were unable to move the length of the body upon stimulator by prodding were considered dead. Percent mortality was recorded for various concentration levels.
(§2) In these test the pesticidal activity of the compounds against aphid, mite, Southern Armyworm, Mexican Bean Beetle, and house fly was rated as follows: […]

In data set [2] the test system is Cotton. As to the kind of experiment: Phytotoxicity test, cotton. More on the design: key: 1: no perceptible injury; 2: intermediate degrees of injury based upon the number and extent to which leaves were injured; 3: intermediate degrees of injury based upon the number and extent to which leaves were injured; 4: intermediate degrees of injury based upon the number and extent to which leaves were injured; 5: the plant was dead. Particulars: 2500 ppm spray, after ten days. As for the experimental part: as §1
Experiments were also conducted to determine the phytotoxicity of representative compositions with respect to healthy fresh plants. Solutions of the compounds were prepared as described above to provide a concentration of 2500 parts per million of the test compound. The test plants were sprayed in accordance with the procedure described above for the Mite Foliage Spray Test so as to deliver approximately 100 milliliters of test solution to the leaves of each plant tested. The sprayed plants and controls were set aside for approximately one hour to allow the solutions to dry and were then placed in the greenhouse. After ten days the plants were visually inspected to determine the extent of foliage injury. A rating of 1 indicates no perceptible injury; 5 indicates the plant was dead and ratings of 2, 3 and 4 indicate intermediate degrees of injury based upon the number and extent to which leaves were injured.

The subject of data set [3] is two-spotted mite (Tetranychus urticae Koch). The experiment in a line: Mite foliage spray test. Details: key: A: Excellent control; B: Partial control; C: No control. The conditions noted are these: 500 ppm, six days. As for the experimental part:
as §1
Adults and nymphal stages of the two-spotted mite (Tetranychus urticae Koch), reared on Tendergreen bean plants at 80±5 percent relative humidity, were the test organisms. Infested leaves from a stock culture were placed on the primary leaves of two bean plants six to eight inches in height, growing in a two- and-a-half inch clay pot. 150-200 mites, a sufficient number for testing, transferred from the excised leaves to the fresh plants in a period of twenty-four hours. Following the twenty-four hour transfer period, the excised leaves were removed from the infested plants. The test compounds were formulated by diluting the stock suspension with water to give a suspension with water to give a suspension containing 500 parts of test compound per million parts of final formulation. The potted plants (one pot per compound) were placed on a revolving turntable and sprayed with 100-110 milliliters of test compound formulation by use of a DeVilbiss spray gun set at 40 psig. air pressure. This application, which lasted for 25 seconds was sufficient to wet the plants to run-off. As a control, 100-110 milliliters of a water solution containing acetone and emulsifier in the same concentrations as the test compound formulation, but containing no test compound, were also sprayed on infested plants. The sprayed plants were held at 80±5 percent relative humidity for six days, after which a mortality count of motile forms was made. Microscopic examination for motile forms was made on the leaves of the test plants. Any individual which was capable of locomotion upon prodding, was considered living.
as §2

In data set [4] the test system is southern armyworm (Prodenia Eridania, (Cram.)). As to the kind of experiment: Southern armyworm leaf spray test. Particulars: 500 ppm, three days. Details: key: A: Excellent control; B: Partial control; C: No control. As for the experimental part:
as §1
Larvae of the southern armyworm (Prodenia Eridania, (Cram.), reared on Tendergreen bean plants at a temperature of 80°±5° F. and relative humidity of 50±5 percent, constituted the test insects.
The test compounds were formulated by diluting the stock suspension with water to give a suspension containing 500 parts of test compound per million parts of final formulation. Potted Tendergreen bean plants of standard height and age were placed on a revolving turntable and sprayed with 100-110 milliliters of test compound formulation by use of a DeVilbiss spray gun set at 10 psig. air pressure.
This application which lasted 25 seconds was sufficient to wet plants to run-off. As a control, 100-110 milliliters of a water-acetone-emulsifier solution containing no test compound were also sprayed on infested plants. When dry, the paired leaves were separated and each one was placed in a 9 centimeter Petri dish lined with moistened filter paper. Five randomly selected larvae were introduced into each dish and the dishes were closed. The closed dishes were labeled and held at 80°-85° F. for three days. Although the larvae could easily consume the whole leaf within twenty-four hours, no more food was added. Larvae which were unable to move the length of the body, even upon stimulation by prodding, were considered dead. Percent mortality was recorded for various concentration levels.
as §2

Data set [5] concerns house flies (Musca domestica, L.). As to the kind of experiment: Fly bait test. Particulars: 500 ppm, bait in 10 percent sugar solution, twenty four hours. Details: key: A: Excellent control; B: Partial control; C: No control. As for the experimental part: as §1
Four to six day old adult house flies (Musca domestica, L.) reared according to the specifications of the Chemical Specialties Manufacturing Association (Blue Book, McNair-Dorland Co., NY., 1954; pages 243-244, 261) under controlled conditions of 80°±5° F. and 50±5 percent relative humidity, were the test insects. The flies were immobilized by anesthetizing with carbon dioxide and twenty five immobilized individuals, males and females, were transferred to a cage consisting of a standard food strainer about five inches in diameter which was inverted over a wrapping-paper-covered surface. The test compounds were formulated by diluting the stock suspension with a 10 percent (by weight) sugar solution to give a suspension containing 500 parts of test compound per million parts of final formulation, by weight. Ten milliliters of the test formulation were added to a souffle cup containing a one inch square of an absorbent cotton pad. This bait cup was introduced and centered on the blotting paper under the food strainer prior to admitting the anesthetized flies. The caged flies were allowed to feed on the bait for twenty four hours, at a temperature of 80°±5° F. and the relative humidity of 50±5 percent.
as §2

As to `CN(C(=O)C[N+](C)(C)C)C(=O)Oc1cccc2c1OC(C)(C)C2`, the “Pesticidal activity, Aphid” value in data set [1] is “A”. Moreover, the “POST-Emergent Herbicidal (phytotoxicity rating), Cotton” value (from here on “POST-Emergent Herbicidal”) in data set [2] is 2. Further, in data set [3], the “Pesticidal activity, Mite” value is listed as “C”. The “Pesticidal activity, Southern Armyworm” value in data set [4] was “A”. Also, the “Pesticidal activity, Fly” value in data set [5] is on record as “A”.
`CN(C(=O)C[N+]1(C)CCCC1)C(=O)Oc1cccc2c1OC(C)(C)C2`: the “Pesticidal activity, Aphid” value in data set [1] is on record as “A”. In addition, the “POST-Emergent Herbicidal” value in data set [2] amounted to 2. Also, the “Pesticidal activity, Mite” value in data set [3] is listed as “A”. For the same compound, the “Pesticidal activity, Southern Armyworm” value in data set [4] was “A”. For the same compound, the “Pesticidal activity, Fly” value in data set [5] is “A”.
Take `CN(C(=O)C[n+]1ccn(C)c1)C(=O)Oc1cccc2c1OC(C)(C)C2`: in data set [1], the “Pesticidal activity, Aphid” value is on record as “A”. Besides, the “POST-Emergent Herbicidal” value in data set [2] was 1. The “Pesticidal activity, Mite” value in data set [3] is reported as “A”. For the same compound, the “Pesticidal activity, Southern Armyworm” value in data set [4] is recorded as “A”. For the same compound, the “Pesticidal activity, Fly” value in data set [5] was “A”.
On to `CCCCCCCCCCCC[N+](C)(C)CC(=O)N(C)C(=O)Oc1cccc2c1OC(C)(C)C2`, for which the “Pesticidal activity, Aphid” value in data set [1] is “A”. Besides, the “POST-Emergent Herbicidal” value in data set [2] was 2. In addition, in data set [3], the “Pesticidal activity, Mite” value is listed as “A”. Also, in data set [4], the “Pesticidal activity, Southern Armyworm” value is recorded as “A”. In data set [5], the “Pesticidal activity, Fly” value was “A”.
Regarding `CN(C(=O)C[n+]1ccc(N(C)C)cc1)C(=O)Oc1cccc2c1OC(C)(C)C2`, the “Pesticidal activity, Aphid” value in data set [1] was “A”. Also, the “POST-Emergent Herbicidal” value in data set [2] is 1. For the same compound, in data set [3], the “Pesticidal activity, Mite” value is listed as “A”. In addition, the “Pesticidal activity, Southern Armyworm” value in data set [4] is “A”. Further, in data set [5], the “Pesticidal activity, Fly” value was “A”.
As for `CCCCCCCCCCCCCCCCCC[N+](C)(C)CC(=O)N(C)C(=O)Oc1cccc2c1OC(C)(C)C2`, in data set [1], the “Pesticidal activity, Aphid” value was “B”. Further, the “POST-Emergent Herbicidal” value in data set [2] is reported as 2. Further, in data set [3], the “Pesticidal activity, Mite” value is recorded as “C”. Also, the “Pesticidal activity, Southern Armyworm” value in data set [4] was “A”. Besides, in data set [5], the “Pesticidal activity, Fly” value is listed as “A”.

(Values after US4201786A, “Water soluble pesticidal quaternary ammonium salt compounds” (Union Carbide Corporation, priority 1977, dated 1980).)
